Here are results for four molecules from patent US8481457B2, “Method for the improved use of the production potential of transgenic plants” (priority 2007, dated 2013).

Holding throughout (format): in vivo
The test system of test [1] is larvae of the cotton bollworm (Heliothis armigera). The test is described as follows: Example 5: Heliothis armigera on Cotton (DP444 BG/RR), dip application, kill in %. Here is the method:
Individually potted transgenic cotton plants with Lepidoptera resistance and herbicide resistance (cultivar DP444 BG/RR) are treated in 2 replications against larvae of the cotton bollworm (Heliothis armigera). Application is carried out by dip application with the respective active compound at the desired application rate.
(§1) After the desired period of time, the kill in % is determined. 100% means that all caterpillars have been killed; 0% means that none of the caterpillars have been killed.

Test [2] relates to armyworm (Spodoptera frugiperda). The test is described as follows: Example 10: Spodoptera frugiperda on Maize (Drench Application), kill in %. Particulars: 100 ppm. Here is the method: Pots with in each case 5 transgenic maize plants having Coleoptera. Lepidoptera and/or herbicide resistance (cultivars HC33CRW×LH287BTCRW, LH332RR×LH324BT, LH24-4RR×LH324 and FR 1064LL×FR 2108) are treated in 2 replications against the armyworm (Spodoptera frugiperda). Application is carried out by drench application with the respective active compound at the desired application rate.
as §1

Test [3] has as its system larvae of the beet armyworm (Spodoptera exigua). Put plainly: Example 8: Spodoptera exigua on Maize, dip application, kill in %. Particulars: 100 ppm. Here is the method:
Pots with in each case 5 transgenic maize plants having Coleoptera, Lepidoptera and/or herbicide resistance (cultivars LH332RR×LH324BT, LH244RR×LH324, HC33CRW×LH287BTCRW and TR47×TR 7322 BT) are treated in 2 replications against larvae of the beet armyworm (Spodoptera exigua). Application is carried out by dip application with the respective active compound at the desired application rate.
as §1

The test system of test [4] is armyworm (Spodoptera frugiperda). The test is described as follows: Example 9: Spodoptera frugiperda on Maize, dip application, kill in %. Particulars: 100 ppm. Here is the method: Pots with in each case 5 transgenic maize plants having Coleoptera, Lepidoptera and/or herbicide resistance (cultivars HC33CRW×LH287BTCRW, TR47×TR 7322 BT) are treated in 2 replications against the armyworm (Spodoptera frugiperda). Application is carried out by dip application with the respective active compound at the desired application rate.
as §1

Test [5] concerns cotton aphid (Aphis gossypii). The test is described as follows: Example 4: Aphis gossypii on Cotton (DP444 BG/RR), dip application, kill in %. Particulars: 0.8 ppm. Here is the method: Individually potted transgenic cotton plants with Lepidoptera resistance and herbicide resistance (cultivar DP444 BG/RR), which are populated by a mixed population of the cotton aphid (Aphis gossypii) are treated by dip application with the respective active compound.
After the desired period of time, the kill in % is determined. 100% means that all aphids have been killed; 0% means that none of the aphids have been killed.

For test [6], the system named is armyworm (Spodoptera frugiperda). Put plainly: Example 6: Spodoptera frugiperda on Cotton (DP444 BG/RR), dip application, kill in %. Here is the method:
Individually potted transgenic cotton plants with Lepidoptera resistance and herbicide resistance (cultivar DP444 BG/RR) are treated in 2 replications against the armyworm (Spodoptera frugiperda). Application is by dip application with the respective active compound at the desired application rate.
as §1

Test [7] concerns larvae of the banded cucumber beetle (Diabrotica balteata). The test is described as follows: Example 7: Diabrotica balteata on Maize, drench application, kill in %. Particulars: 100 ppm. Here is the method: Pots with in each case 5 transgenic maize plants having Coleoptera, Lepidoptera and/or herbicide resistance (cultivars LH244RR×LH324 and HCL 201CRW2RR2×LH 324) are treated in 2 replications against larvae of the banded cucumber beetle (Diabrotica balteata). Application is carried out by drench application with the respective active compound at the desired application rate.
After the desired period of time, the kill in % is determined. 100% means that all beetle larvae have been killed; 0% means that none of the beetle larvae have been killed.

Regarding `O=C1C=C(N(CCF)Cc2ccc(Cl)nc2)CO1` [Compound I-4, 4-{[(6-chloropyrid-3-yl)methyl](2-fluoroethyl)amino}furan-2(5H)-one], the “Kill rate in % after 4d (found)” value in test [1] (100 ppm), in test [3] and in test [4] was 0% in each case. For the same molecule, the “Kill rate in % after 6d (found)” value in test [2] and in test [5] (after 6 d) was 15% throughout.
As to `O=C1C=C(N(Cc2ccc(Cl)nc2)CC(F)F)CO1` [Compound I-5, 4-{[(6-chloropyrid-3-yl)methyl](2,2-difluoroethyl)amino}furan-2(5H)-one], the entries for the “Kill rate in % after 1d (found)” value in test [4] (after 1 d) and in test [5] (after 1 d) were 0% and 40%, respectively. Further, the “Kill rate in % after 4d (found)” value in test [4] is recorded as 10%; in test [6] (20 ppm, after 4 d) it was 0%. Besides, the “Kill rate in % after 10d (found)” value in test [7] is listed as 45%.
Take `CN(Cc1ccc(Cl)nc1)C1=CC(=O)OC1` [Compound I-10, 4-{[(6-chloropyrid-3-yl)methyl](methyl)amino}furan-2(5H)-one]: the “Kill rate in % after 6d (found)” value in test [2] is 0%. Moreover, in test [3], the “Kill rate in % after 4d (found)” value came out at 10%.
With `CN(Cc1cnc(Cl)c(F)c1)C1=CC(=O)OC1` [Compound I-6, 4-{[(6-chloro-5-fluoropyrid-3-yl)methyl](methyl)amino}furan-2(5H)-one], the “Kill rate in % after 4d (found)” value in test [1] (20 ppm), in test [3] and in test [4] was 0% each time. Moreover, the “Kill rate in % after 6d (found)” value in test [2] amounted to 0%; in test [6] (100 ppm, after 6 d) it was 20%.
